{
  "source": "paper PMC6882900",
  "about": "“Pharmacokinetics of Micafungin in Critically Ill Patients” (Scientific Reports, 2019)",
  "key": {"albumin": {"test_system": "albumin", "details": "primary binding protein is albumin; cited from earlier work", "protocol": "(§1) Micafungin has a small volume of distribution (~119 ml/kg) and the drug is highly protein bound (>99%). The primary binding protein is albumin. […] The pharmacokinetics and pharmacodynamics of micaf ..."}, "[1]": {"details": "cited from earlier work", "protocol": "as §1"}, "C. glabrata [2]": {"test_system": "C. glabrata", "parameters": "method as in EUCAST", "details": "ref EUCAST; cited from earlier work"}, "C. parapsilosis [3]": {"test_system": "C. parapsilosis", "parameters": "method as in EUCAST", "details": "ref EUCAST; cited from earlier work"}, "C. albicans [4]": {"test_system": "C. albicans", "details": "non-resistant strains; cited from earlier work", "excerpt": "(§2) The European Committee on Antimicrobial Susceptibility Testing (EUCAST) established the guideline for micafungin and Candida ssp. with species related clinical breakpoints for non-resistant strains. These breakpoints were used as surrogate for the minimal inhibitory concentration (MIC) for C. albicans, C. glabrata and C. parapsilosis. Proposed MICs are […], respectively."}, "C. parapsilosis [5]": {"test_system": "C. parapsilosis", "details": "non-resistant strains; cited from earlier work", "excerpt": "as §2"}, "[6]": {"assay": "Population pharmacokinetic modelling of micafungin in critically ill patients (NONMEM, plasma samples)", "type": "in vivo, human", "excerpt": "This is a non-interventional study conducted in critically ill adult patients treated in the intensive care units of the Department of Anaesthesiology, Intensive Care Medicine and Pain Therapy of the University Hospital Muenster in Germany. The collection of data and blood samples was approved by the ethics committee of the University of Muenster (Study Code 06-AnIt-11). […] Written informed consent was obtained from all patients or their representatives.\nThe study included 36 adult patients. Patient demographics and other clinical parameters were collected from the electronic patient charts of the intensive care unit. All patients received 100 mg micafungin intravenously once daily either as empiric or targeted therapy of suspected or proven infection. The decision to begin or end therapy was made by the physicians in charge of the intensive care units irrespective of the pharmacologic study.\nBlood samples were collected from indwelling arterial catheters for analysis of micafungin concentrations. On day 1, plasma micafungin concentration was determined at 1, 4, 8, 12, 16 and 20 hours post application and as a trough level immediately before the next dose of micafungin after 24 hours. From day two of therapy, peak levels one hour after infusion and trough levels were collected.\nBlood samples were exclusively taken from arterial lines into ethylenediaminetetraacetic acid (EDTA)-containing sample vials tubes (S-Monovette® 2.7 ml K3E, Sarstedt, Nümbrecht, Germany). Samples were immediately transported to the in-house laboratory and plasma was separated by centrifugation at 1600 x g (10 min) and kept and frozen at −80 °C until analysis.\nMicafungin in human plasma was analyzed with reversed-phase high-performance liquid chromatography. 200 µl serum, 20 µl internal standard solution (anidulafungin 1 mg/ml in water), 20 µl 30% ZnSO4 x7H2O (w/v) in water and 700 µl methanol were vortex-mixed (5 sec) followed by centrifugation at 800 g for 3 min. 50 µl of the supernatant was injected on a 125 liquid chromatograph (Beckman Coulter GmbH, Krefeld, Germany) interfaced with a model 168 diode array detector. Chromatographic conditions: mobile phase: acetonitrile/50 mM ammonium acetate buffer pH 4.6, 50:50 (v/v); flow rate 1 ml/min at 45 °C; absorbance detection 271 nm; column: XTerra RP18, 3.5 µm, 150 × 4.6 mm (Waters GmbH, Eschborn, Germany).\nModel building was performed using NONMEM (Version 7.3; ICON Development Solutions, Ellicott City, MD) with the ADVAN 6 subroutine and the FOCE + I estimation method. Visual predictive checks (pcVPC) and stepwise covariate model building (SCM) were performed with the PsN module (Version 4.6.0)[25]. Graphical output was created in R (version 3.4.0; R foundation for statistical computing, Vienna, Austria) with additional use of the Xpose package (version 4.5.3)[26].\nThe basic structural model was tested with the following compositions: One to three compartments with linear clearance, nonlinear (Michaelis Menten) clearance and a combination of both were tested.\nAs categorical covariate, sex was tested. Covariate influence was tested on central and peripheral volumes of distribution, and clearance. Covariate testing was performed using stepwise covariate modelling (SCM) in PsN with a 5% forward inclusion and 1% backward elimination criterion."}, "C. albicans [7]": {"test_system": "C. albicans", "assay": "Pharmacodynamic target evaluation (AUC/MIC) in the study population", "type": "in vivo, Candida albicans", "details": "fixed dose 100 mg once daily, post-hoc AUC 0-24 h per patient and day", "excerpt": "as §2\n(§3) Using the previously established population pharmacokinetic model, the AUC for each patient on each day of therapy was determined."}, "C. parapsilosis [8]": {"test_system": "C. parapsilosis", "assay": "Pharmacodynamic target evaluation (AUC/MIC) in the study population", "type": "in vivo, Candida parapsilosis", "details": "fixed dose 100 mg once daily, post-hoc AUC 0-24 h per patient and day", "excerpt": "as §2, §3"}, "C. glabrata [9]": {"test_system": "C. glabrata", "assay": "Pharmacodynamic target evaluation (AUC/MIC) in the study population", "type": "in vivo, Candida glabrata", "details": "fixed dose 100 mg once daily, post-hoc AUC 0-24 h per patient and day", "excerpt": "as §2, §3"}, "C. albicans [10]": {"test_system": "C. albicans", "parameters": "method as in EUCAST", "details": "ref EUCAST; cited from earlier work"}, "[11]": {"details": "final population PK model estimate, 36 critically ill adult patients, 100 mg i.v. once daily"}},
  "note": "Numbered stars: 1 amine (or outer) side, 2 acyl side, 3 side chain; on linkers, the order of the positions; unused ones are H or OH. Bridge positions count the residues as written; N and C are the ends. Square brackets hold non-standard residues; d marks the D form. Peptide text beside a SMILES is read from it. * marks the point of attachment. hTyr(3S-OH,4S-OH,3'-OSO3H) = N[C@H](C(=O)O)[C@H](O)[C@@H](O)c1ccc(O)c(OS(=O)(=O)O)c1; Orn(4R-OH,5R-OH) = O=C([C@H](C[C@@H](O)[C@@H](O)N[*:3])N[*:1])[*:2]; Pro(3S-OH,4S-Me) = C[C@H]1CN[C@H](C(=O)O)[C@H]1O; X1 = CCCCCOc1ccc(-c2cc(-c3ccc(C(=O)*)cc3)no2)cc1; Gln(3R-OH) = NC(=O)C[C@@H](O)[C@H](N)C(=O)O; Hyp = O=C(O)[C@@H]1C[C@@H](O)CN1",
  "data": [
    {"smiles": "CCCCCOc1ccc(-c2cc(-c3ccc(C(=O)N[C@H]4C[C@@H](O)[C@@H](O)NC(=O)[C@@H]5[C@@H](O)[C@@H](C)CN5C(=O)[C@H]([C@H](O)CC(N)=O)NC(=O)[C@H]([C@H](O)[C@@H](O)c5ccc(O)c(OS(=O)(=O)O)c5)NC(=O)[C@@H]5C[C@@H](O)CN5C(=O)[C@H]([C@@H](C)O)NC4=O)cc3)no2)cc1", "note": "[micafungin] (X1-[Orn(4R-OH,5R-OH)]T[Hyp][hTyr(3S-OH,4S-OH,3'-OSO3H)][Gln(3R-OH)][Pro(3S-OH,4S-Me)]; lactam 1-C)", "values": [
      {"measurement": "Protein bound", "setting": "albumin", "result": "> 99", "unit": "%"},
      {"measurement": "Volume of distribution", "setting": "[1]", "result": "~ 119 ml/kg"},
      {"measurement": "Linearity of pharmacokinetics", "setting": "[1]; daily doses between 12.5 mg and 200 mg as well as 3 mg/kg and 8 mg/kg", "result": "Linear pharmacokinetics"},
      {"measurement": "AUC/MIC target to reach stasis", "setting": "C. glabrata [2]", "result": 1283},
      {"measurement": "AUC/MIC target to reach stasis", "setting": "C. parapsilosis [3]", "result": 285},
      {"measurement": "MIC (EUCAST breakpoint as surrogate)", "setting": "C. albicans [4]", "result": 16, "unit": "µg/mL"},
      {"measurement": "MIC (EUCAST breakpoint as surrogate)", "setting": "C. parapsilosis [5]", "result": 2000, "unit": "µg/mL"},
      {"measurement": "Influence of renal replacement therapy on pharmacokinetics", "setting": "[6]; CVVHDF, SLEDD, clearance and volumes of distribution", "result": "did not alter the pharmacokinetics"},
      {"measurement": "Lower central volume of distribution in patients with SOFA >10", "setting": "[6]; categorical covariate effect, SOFA >10 vs less critically ill patients", "result": 30.8, "unit": "%"},
      {"measurement": "Lower clearance in patients with bilirubin >4 mg/dl", "setting": "[6]; categorical covariate effect, bilirubin >4 mg/dl", "result": 21.1, "unit": "%"},
      {"measurement": "Central volume of distribution", "setting": "[6]; [11]", "result": 16.2, "unit": "L"},
      {"measurement": "Inter-compartmental clearance", "setting": "[6]; [11]", "result": 14.4, "unit": "L/h"},
      {"measurement": "Peripheral volume of distribution", "setting": "[6]; [11]", "result": 13.8, "unit": "L"},
      {"measurement": "clearance", "setting": "[6]; human, iv, final population PK model estimate (two compartments, linear elimination), 36 critically ill adult patients, 100 mg i.v. once daily, plasma, HPLC-UV", "result": 26, "unit": "mL/min"},
      {"measurement": "Accumulation of micafungin in plasma", "setting": "[6]; up to 10 days of treatment, 100 mg i.v. once daily", "result": "No accumulation"},
      {"measurement": "Adequacy of AUC/MIC ratio against EUCAST breakpoint", "setting": "C. albicans [7]", "result": "adequate therapy intensities"},
      {"measurement": "Adequacy of AUC/MIC ratio against EUCAST breakpoint", "setting": "C. parapsilosis [8]", "result": "does not seem suitable"},
      {"measurement": "Adequacy of AUC/MIC ratio against EUCAST breakpoint", "setting": "C. glabrata [9]", "result": "adequate therapy intensities"},
      {"measurement": "AUC/MIC target to reach stasis", "setting": "C. albicans [10]", "result": 2420}
    ]}
  ]
}
